Results on 4 molecules are retold here after paper PMC9146896, “Uracil as a Zn-Binding Bioisostere of the Allergic Benzenesulfonamide in the Design of Quinoline–Uracil Hybrids as Anticancer Carbonic Anhydrase Inhibitors” (Pharmaceuticals, 2022).

Series [1] deals with breast cancer cell line (MCF-7). Put plainly: Antiproliferative activity, MTT assay under hypoxic conditions. As to conditions: Homo sapiens, MCF7, read-out: Cytotoxicity IC50 MCF7.
Series [2] concerns lung cancer cell line (A549). The series is described as above. In kind it is cell-based. Particulars: Homo sapiens, read-out: Cytotoxicity IC50 A549.
Series [3] has as its system Bcl-2. Put plainly: Assessment of apoptotic marker levels: Bcl-2 in MCF-7. In kind it is cell-based. An excerpt: (§1) The two cytoplasmic proteins, B-cell lymphoma protein 2 (Bcl-2) and its associated X protein (Bax), are essential for apoptosis in normal cells. Bax is a promoter and Bcl-2 is an inhibitor of apoptosis. Thus, the effect of 10d and 10l on apoptotic markers Bax and Bcl-2 in a breast cancer cell line (MCF-7) and a lung cancer cell line (A549) has been estimated.

Series [4] concerns Bax. Put plainly: Assessment of apoptotic marker levels: Bax in MCF-7. In kind it is cell-based.
Excerpt: as §1

The subject of series [5] is Bcl-2. Put plainly: Assessment of apoptotic marker levels: Bcl-2 in A549. In kind it is cell-based.
Excerpt: as §1

Series [6] has as its system Bax. Put plainly: Assessment of apoptotic marker levels: Bax in A549. In kind it is cell-based.
Excerpt: as §1

The target of series [7] is T1, hCA I (Homo sapiens, UniProt P00915). Put plainly: Carbonic anhydrase inhibition, colorimetric method (BioVision CA Inhibitor Screening Kit).
T1 sequence (P00915 whole entry): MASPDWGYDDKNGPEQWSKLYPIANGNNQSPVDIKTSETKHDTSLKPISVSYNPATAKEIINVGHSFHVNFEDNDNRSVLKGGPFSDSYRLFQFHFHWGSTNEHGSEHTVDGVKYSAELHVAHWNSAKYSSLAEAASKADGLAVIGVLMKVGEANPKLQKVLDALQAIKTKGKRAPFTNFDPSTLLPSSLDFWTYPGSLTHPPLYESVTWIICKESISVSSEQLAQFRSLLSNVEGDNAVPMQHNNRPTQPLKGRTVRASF
Series [8] concerns the target T2, hCA II (Homo sapiens, UniProt P00918). The series is described as above.
Series [9] has as its target T3, hCA IX (Homo sapiens, UniProt Q16790). The series is described as above. Particulars: for Selectivity index I/IX: hCA IX over hCA I; for Selectivity index II/IX: hCA IX over hCA II.
The target in series [10] is T4, hCA XII (Homo sapiens, UniProt O43570). The description is as above. As to conditions: for Selectivity index I/XII: hCA XII over hCA I; for Selectivity index II/XII: hCA XII over hCA II.
T4 sequence (O43570 25-354): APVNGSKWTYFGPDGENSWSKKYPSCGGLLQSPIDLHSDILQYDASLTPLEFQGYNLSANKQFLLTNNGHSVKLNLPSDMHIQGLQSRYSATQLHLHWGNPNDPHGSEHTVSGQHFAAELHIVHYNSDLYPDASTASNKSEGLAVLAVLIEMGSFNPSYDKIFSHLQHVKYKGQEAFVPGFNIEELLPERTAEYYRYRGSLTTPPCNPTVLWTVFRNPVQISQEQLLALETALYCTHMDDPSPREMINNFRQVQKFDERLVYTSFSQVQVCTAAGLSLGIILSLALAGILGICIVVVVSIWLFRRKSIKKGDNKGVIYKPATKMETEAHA
Series [11] addresses T1, hCA I. As to conditions: range, quinoline-based sulfonamides; cited from earlier work.
In series [12] the target is T2, hCA II. As to conditions: range, quinoline-based sulfonamides; cited from earlier work.
Series [13] addresses T3, hCA IX. Details: method as in PMID 34681794. As to conditions: cited from earlier work.
The target in series [14] is T4, hCA XII. More on the design: method as in PMID 34681794. As to conditions: cited from earlier work.

Several values for one entry are separate records, joined by “and”; a condition that tells them apart may be missing. Equal entries are not always repeated. Where two headings read alike, the source gives them in different places.

The IC50 is the concentration needed to halve the response being measured. As a reminder, the melting point is the temperature, or range, at which the solid turns liquid. Usually Ki stands for a measure of affinity in units of concentration, obtained from inhibition or displacement. Turning to `Cn1c(N)c(/N=C/c2cc3ccccc3[nH]c2=O)c(=O)[nH]c1=O` [Compound 10d, (E)-6-Amino-1-methyl-5-(((2-oxo-1,2-dihydroquinolin-3-yl)methylene)amino) pyrimidine-2,4(1H,3H)-dione], the melting point fell in the range of 298 to 300 °C. For the same molecule, the IC50 in series [1] came to 2870 ± 50 nM. For the same molecule, in [2], the 50% inhibitory concentration (IC50) came out at 11800 ± 220 nM. In series [3], the Bcl2 was found to be 2.587 ± 0.03 nm/mL and the “Bcl-2 level in comparison with the control” value (“Bcl-2 level in comparison” below) is reported as “downregulated”. Moreover, in [4], the Bax is given as 403.1 ± 4.69 pg/mL and the “Bax level relative to the control” value is “nearly six-fold”. Further, in series [5], the Bcl2 came out at 2.841 ± 0.01 nm/mL and the “Bcl-2 level in comparison” value is reported as “downregulated”. Further, in series [6], the Bax is given as 278.6 ± 9.14 pg/mL and the “Bax level relative to the control” value is reported as “nearly six-fold”. In series [7], this molecule displayed an IC50 of 230 nM and a Ki of 130 nM. Besides, in series [8], the half-inhibitory concentration (IC50) worked out at 260 nM and the affinity, expressed as Ki, was 140 nM. Also, in [9], the IC50 turned out to be 220 nM, the inhibitory constant (Ki) is 120 nM, the “Selectivity index I/IX” value was 1.09 and the “Selectivity index II/IX” value is on record as 1.21. For the same molecule, in [10], the half-maximal inhibitory concentration (IC50) came out at 190 nM, the inhibition constant Ki worked out at 110 nM, the “Selectivity index I/XII” value stood at 1.24 and the “Selectivity index II/XII” value amounted to 1.37.
`CCOC(=O)c1cnc2cc(Cl)c(F)cc2c1Nc1cccc(S(N)(=O)=O)c1` [Compound I]: the Ki in series [11] was 966 to 9090 nM and 960 to 9090 nM; in [12], 83 to 3590 nM.
As for `COc1ccc2[nH]c(=O)c(/C=N/c3c(N)n(C)c(=S)[nH]c3=O)cc2c1` [Compound 10l, (E)-3-(((6-Amino-1-methyl-4-oxo-2-thioxo-1,2,3,4-tetrahydropyrimidin-5-yl)imino)methyl)-6-methoxyquinolin-2(1H)-one], the melting point is 295 to 297 °C. In addition, in series [1], the half-maximal inhibitory concentration (IC50) stood at 4080 ± 80 nM. In series [2], the IC50 was determined as 26100 ± 560 nM. Moreover, in series [3], the Bcl2 came out at 3.296 ± 0.09 nm/mL and the “Bcl-2 level in comparison” value is on record as “downregulated”. Also, in series [4], the Bax was 337.2 ± 7.55 pg/mL and the “Bax level relative to the control” value is “nearly six-fold”. In addition, in series [5], the Bcl2 stood at 4.605 ± 0.28 nm/mL and the “Bcl-2 level in comparison” value is “downregulated”. In addition, in series [6], the Bax was 208.4 ± 4.07 pg/mL and the “Bax level relative to the control” value is reported as “nearly six-fold”. In series [7], this molecule displayed an IC50 of 250 nM and a Ki of 140 nM. Further, in series [8], the IC50 was 1880 nM and the Ki turned out to be 1040 nM. In addition, in series [9], the IC50 is 140 nM, the Ki amounted to 80 nM, the “Selectivity index I/IX” value was 1.75 and the “Selectivity index II/IX” value was 13.20. In [10], the IC50 stood at 190 nM, the Ki amounted to 110 nM, the “Selectivity index I/XII” value was 1.29 and the “Selectivity index II/XII” value is listed as 9.75.
Take `NS(=O)(=O)c1cc(Nc2ccnc3ccc(Cl)cc23)ccc1Cl` [Compound II]: the Ki is 18.6 nM and 19 nM in series [13]; 9 nM in series [14].
